# Legend:
# HDAC6 human recombinant = molecular target: T1, HDAC6 human recombinant (Homo sapiens, UniProt Q9UBN7); experiment: HDAC enzyme activity inhibition (in vitro), HDAC6 assay; assay type: biochemical; details: samples at 0.1, 1, 10, 100 and 1000 nM; 37° C. 60 minutes; fluorescence Ex 390, Em 460; read-out: HDAC6 IC50
# T1 construct: purchased Calbiochem 382180
# T1 sequence (Q9UBN7 1-1215): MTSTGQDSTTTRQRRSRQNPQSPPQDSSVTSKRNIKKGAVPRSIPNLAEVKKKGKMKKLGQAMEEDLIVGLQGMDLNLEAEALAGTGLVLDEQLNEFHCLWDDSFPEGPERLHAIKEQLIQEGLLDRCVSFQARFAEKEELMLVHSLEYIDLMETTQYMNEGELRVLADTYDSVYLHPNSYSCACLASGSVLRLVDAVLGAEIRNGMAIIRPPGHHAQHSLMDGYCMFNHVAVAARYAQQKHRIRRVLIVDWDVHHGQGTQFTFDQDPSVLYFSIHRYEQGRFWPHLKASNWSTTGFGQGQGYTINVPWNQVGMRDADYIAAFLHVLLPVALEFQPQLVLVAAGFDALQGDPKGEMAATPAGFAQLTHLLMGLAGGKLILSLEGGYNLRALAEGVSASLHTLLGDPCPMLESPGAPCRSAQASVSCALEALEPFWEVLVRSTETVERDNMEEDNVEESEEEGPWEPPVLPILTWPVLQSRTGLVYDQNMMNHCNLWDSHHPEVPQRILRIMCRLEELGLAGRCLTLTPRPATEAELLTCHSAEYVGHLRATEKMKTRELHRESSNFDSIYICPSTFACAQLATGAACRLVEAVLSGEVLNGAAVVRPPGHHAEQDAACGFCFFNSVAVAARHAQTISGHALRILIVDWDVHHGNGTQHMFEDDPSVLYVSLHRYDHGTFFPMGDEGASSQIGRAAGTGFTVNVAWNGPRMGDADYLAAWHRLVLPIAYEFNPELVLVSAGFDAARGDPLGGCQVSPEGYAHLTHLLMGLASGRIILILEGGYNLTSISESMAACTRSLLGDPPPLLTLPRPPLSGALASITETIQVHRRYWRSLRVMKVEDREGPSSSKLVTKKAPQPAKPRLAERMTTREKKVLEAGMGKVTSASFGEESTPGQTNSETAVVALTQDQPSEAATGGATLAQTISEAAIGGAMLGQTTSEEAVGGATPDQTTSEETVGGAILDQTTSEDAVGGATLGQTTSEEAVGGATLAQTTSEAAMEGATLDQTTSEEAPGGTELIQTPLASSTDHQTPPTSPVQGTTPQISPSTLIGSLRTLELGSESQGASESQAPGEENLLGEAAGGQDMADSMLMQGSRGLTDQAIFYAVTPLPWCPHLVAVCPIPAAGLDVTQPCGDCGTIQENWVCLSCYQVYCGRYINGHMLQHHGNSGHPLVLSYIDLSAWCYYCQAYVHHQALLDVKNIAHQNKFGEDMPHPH
# Outline: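 Fluorescence (Ex 390, Em 460) read after a 37° C, 60 min enzyme reaction and a further 30 min developer step at 37° C. Uses recombinant human HDAC6; HDAC1 arm dosed at 100, 1000, 10000 nM.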
# HDAC1 = molecular target: T2, HDAC1 (Homo sapiens, UniProt Q13547); experiment: HDAC enzyme activity inhibition (in vitro), HDAC1 Fluorimetric Drug Discovery Assay Kit; assay type: biochemical; details: samples at 100, 1000 and 10000 nM; 37° C. 60 minutes; fluorescence Ex 390, Em 460; read-out: HDAC1 IC50
# T2 construct: purchased Enzolifesciences BML-AK511
# T2 sequence (Q13547 whole entry): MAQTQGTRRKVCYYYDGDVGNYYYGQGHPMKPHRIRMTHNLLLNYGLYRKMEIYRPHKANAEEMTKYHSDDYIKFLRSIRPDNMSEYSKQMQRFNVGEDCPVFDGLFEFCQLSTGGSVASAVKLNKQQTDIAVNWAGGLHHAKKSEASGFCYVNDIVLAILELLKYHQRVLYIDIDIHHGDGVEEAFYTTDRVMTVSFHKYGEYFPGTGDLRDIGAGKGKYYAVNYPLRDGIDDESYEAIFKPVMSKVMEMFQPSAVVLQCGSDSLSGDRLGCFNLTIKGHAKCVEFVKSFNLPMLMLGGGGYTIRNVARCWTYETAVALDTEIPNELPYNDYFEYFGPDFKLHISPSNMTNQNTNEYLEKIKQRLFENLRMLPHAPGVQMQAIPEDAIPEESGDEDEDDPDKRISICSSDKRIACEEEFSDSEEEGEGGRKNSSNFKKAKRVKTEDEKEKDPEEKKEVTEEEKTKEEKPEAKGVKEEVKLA
# Outline: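 Fluorescence read-out (Ex 390/Em 460) after developer step, 30 min at 37° C, following a 60-min 37° C enzyme reaction. Test concentrations: HDAC1 kit, 100–10000 nM (three levels); recombinant human HDAC6, 0.1–1000 nM (five levels).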
SMILES,IC50 (HDAC6 human recombinant) [nM],IC50 (HDAC1) [nM]
"O=c1n(Cc2ccc(-c3nnc(C(F)F)o3)cc2F)c2cc(C(F)(F)F)ccc2n1C1CCN(C2COC2)CC1 [Compound 92, 3-(4-(5-(difluoromethyl)-1,3,4-oxadiazole-2-yl)-2-fluorobenzyl)-1-(1-(oxetan-3-yl)piperidine-4-yl)-5-(trifluoromethyl)-1,3-dihydro-2H-benzo[d]imidazole-2-one]",62,> 10000
"CN1CCC(n2c(=O)n(Cc3ccc(-c4nnc(C(F)F)o4)cc3F)c3cc(F)c(F)cc32)CC1 [Compound 93, 1-(4-(5-(difluoromethyl)-1,3,4-oxadiazole-2-yl)-2-fluorobenzyl)-5,6-difluoro-3-(1-methylpiperidine-4-yl)-1,3-dihydro-2H-benzo[d]imidazole-2-one]",40,> 10000
"O=c1n(Cc2ccc(-c3nnc(C(F)F)o3)cc2F)c2cc(F)c(F)cc2n1C1CCN(C2COC2)CC1 [Compound 94, 1-(4-(5-(difluoromethyl)-1,3,4-oxadiazole-2-yl)-2-fluorobenzyl)-5,6-difluoro-3-(1-(oxetan-3-yl)piperidine-4-yl)-1,3-dihydro-2H-benzo[d]imidazole-2-one]",45,> 10000
"CN1CCC(n2c(=O)n(Cc3ccc(-c4nnc(C(F)F)o4)cc3)c3cc(F)c(F)cc32)CC1 [Compound 95, 1-(4-(5-(difluoromethyl)-1,3,4-oxadiazole-2-yl)benzyl)-5,6-difluoro-3-(1-methylpiperidine-4-yl)-1,3-dihydro-2H-benzo[d]imidazole-2-one]",51,> 10000
"O=c1n(Cc2ccc(-c3nnc(C(F)F)o3)cc2)c2cc(F)c(F)cc2n1C1CCN(C2COC2)CC1 [Compound 96, 1-(4-(5-(difluoromethyl)-1,3,4-oxadiazole-2-yl)benzyl)-5,6-difluoro-3-(1-(oxetan-3-yl)piperidine-4-yl)-1,3-dihydro-2H-benzo[d]imidazole-2-one]",36,> 10000
"CN1CCC(n2c(=O)n(Cc3ccc(-c4nnc(C(F)F)o4)cn3)c3ccc(Cl)cc32)CC1 [Compound 97, 5-chloro-1-((5-(5-(difluoromethyl)-1,3,4-oxadiazole-2-yl)pyridine-2-yl)methyl)-3-(1-methylpiperidine-4-yl)-1,3-dihydro-2H-benzo[d]imidazole-2-one]",32,> 10000
"O=c1n(Cc2ccc(-c3nnc(C(F)F)o3)cn2)c2ccc(Cl)cc2n1C1CCN(C2COC2)CC1 [Compound 98, 5-chloro-1-((5-(5-(difluoromethyl)-1,3,4-oxadiazole-2-yl)pyridine-2-yl)methyl)-3-(1-(oxetan-3-yl)piperidine-4-yl)-1,3-dihydro-2H-benzo[d]imidazole-2-one]",28,> 10000
"CN1CCC(n2c(=O)n(Cc3ccc(-c4nnc(C(F)F)o4)cc3)c3ccc(Cl)cc32)CC1 [Compound 99, 5-chloro-1-(4-(5-(difluoromethyl)-1,3,4-oxadiazole-2-yl)benzyl)-3-(1-methylpiperidine-4-yl)-1,3-dihydro-2H-benzo[d]imidazole-2-one]",37,> 10000
"O=c1n(Cc2ccc(-c3nnc(C(F)F)o3)cc2)c2ccc(Cl)cc2n1C1CCN(C2COC2)CC1 [Compound 100, 5-chloro-1-(4-(5-(difluoromethyl)-1,3,4-oxadiazole-2-yl)benzyl)-3-(1-(oxetan-3-yl)piperidine-4-yl)-1,3-dihydro-2H-benzo[d]imidazole-2-one]",39,> 10000
"CN1CCC(n2c(=O)n(Cc3ccc(-c4nnc(C(F)F)o4)cc3F)c3ccc(Cl)cc32)CC1 [Compound 101, 5-chloro-1-(4-(5-(difluoromethyl)-1,3,4-oxadiazole-2-yl)-2-fluorobenzyl)-3-(1-methylpiperidine-4-yl)-1,3-dihydro-2H-benzo[d]imidazole-2-one]",44,> 10000
"O=c1n(Cc2ccc(-c3nnc(C(F)F)o3)cc2F)c2ccc(Cl)cc2n1C1CCN(C2COC2)CC1 [Compound 102, 5-chloro-1-(4-(5-(difluoromethyl)-1,3,4-oxadiazole-2-yl)-2-fluorobenzyl)-3-(1-(oxetan-3-yl)piperidine-4-yl)-1,3-dihydro-2H-benzo[d]imidazole-2-one]",59,> 10000
"CN1CCC(n2c(=O)n(Cc3ccc(-c4nnc(C(F)F)o4)cc3F)c3ncccc32)CC1 [Compound 103, 3-(4-(5-(difluoromethyl)-1,3,4-oxadiazole-2-yl)-2-fluorobenzyl)-1-(1-methylpiperidine-4-yl)-1,3-dihydro-2H-imidazo[4,5-b]pyridine-2-one]",342,> 10000
"O=c1n(Cc2ccc(-c3nnc(C(F)F)o3)cc2F)c2ncccc2n1C1CCN(C2COC2)CC1 [Compound 104, 3-(4-(5-(difluoromethyl)-1,3,4-oxadiazole-2-yl)-2-fluorobenzyl)-1-(1-(oxetan-3-yl)piperidine-4-yl)-1,3-dihydro-2H-imidazo[4,5-b]pyridine-2-one]",283,> 10000
"CN1CCC(n2c(=O)n(Cc3ccc(-c4nnc(C(F)F)o4)cc3)c3ncccc32)CC1 [Compound 105, 3-(4-(5-(difluoromethyl)-1,3,4-oxadiazole-2-yl)benzyl)-1-(1-methylpiperidine-4-yl)-1,3-dihydro-2H-imidazo[4,5-b]pyridine-2-one]",640,> 10000
"O=c1n(Cc2ccc(-c3nnc(C(F)F)o3)cc2)c2ncccc2n1C1CCN(C2COC2)CC1 [Compound 106, 3-(4-(5-(difluoromethyl)-1,3,4-oxadiazole-2-yl)benzyl)-1-(1-(oxetan-3-yl)piperidine-4-yl)-1,3-dihydro-2H-imidazo[4,5-b]pyridine-2-one]",391,> 10000
"CN1CCC(n2c(=O)n(Cc3ccc(-c4nnc(C(F)F)o4)cn3)c3ncccc32)CC1 [Compound 107, 3-((5-(5-(difluoromethyl)-1,3,4-oxadiazole-2-yl)pyridine-2-yl)methyl)-1-(1-methylpiperidine-4-yl)-1,3-dihydro-2H-imidazo[4,5-b]pyridine-2-one]",174,> 10000
O=c1n(Cc2ccc(-c3nnc(C(F)F)o3)cn2)c2ncccc2n1C1CCN(C2COC2)CC1 [Compound 108],148,> 10000
"O=c1n(Cc2ccc(-c3nnc(C(F)(F)F)o3)cn2)c2ccccc2n1C1CC2(COC2)C1 [Compound 109, 1-(2-oxaspiro[3.3]heptane-6-yl)-3-((5-(5-(trifluoromethyl)-1,3,4-oxadiazole-2-yl)pyridine-2-yl)methyl)-1,3-dihydro-2H-benzo[d]imidazole-2-one]",623,> 10000
"Cn1c(=O)n(Cc2ccc(-c3nnc(C(F)F)o3)cc2F)c2cc(-c3cccnc3)ccc21 [Compound 110, 3-(4-(5-(difluoromethyl)-1,3,4-oxadiazole-2-yl)-2-fluorobenzyl)-1-methyl-5-(pyridine-3-yl)-1,3-dihydro-2H-benzo[d]imidazole-2-one]",234,> 10000
"Cn1c(=O)n(Cc2ccc(-c3nnc(C(F)F)o3)cc2F)c2cc(-c3ccncc3)ccc21 [Compound 111, 3-(4-(5-(difluoromethyl)-1,3,4-oxadiazole-2-yl)-2-fluorobenzyl)-1-methyl-5-(pyridine-4-yl)-1,3-dihydro-2H-benzo[d]imidazole-2-one]",322,> 10000
"Cn1c(=O)n(Cc2ccc(-c3nnc(C(F)F)o3)cc2F)c2cc(-c3cccc(F)c3)ccc21 [Compound 112, 3-(4-(5-(difluoromethyl)-1,3,4-oxadiazole-2-yl)-2-fluorobenzyl)-5-(3-fluorophenyl)-1-m ethyl-1,3-dihydro-2H-benzo[d]imidazole-2-one]",864,> 10000
